This passage reports IC50 and Activity results from ChEMBL document CHEMBL5042508, “Structures and Biological Activities of Polyacylated ent-Kaurane Diterpenoid Glycosides from the Aerial Parts of Inula hupehensis” (J Nat Prod, 2022).

Series [1] has as its system BV-2. In words: Antineuroinflammatory activity against mouse BV-2 cells assessed as inhibition of LPS-induced NO production by Griess assay. The series is classed as functional, cell-based. A general note: Griess reagent forms a coloured azo dye with nitrite.
In series [2] the test system is BV-2. Kind of series: Cytotoxicity against mouse BV2 cells assessed as reduction in cell viability by MTT assay. The series is classed as toxicity, cell-based. In general terms: Tetrazolium dyes change colour on reduction, which living cells bring about.
A short description of series [3]: Inhibition of Saccharomyces cerevisiae alpha-glucosidase using pNPG as substrate assessed as release of p-nitrophenol preincubated for 18 mins followed by substrate addition and measured after 30 mins by colorimetric method.

One may read the IC50 as the concentration at which inhibition is half-maximal. Regarding `C=C1[C@@H]2CC[C@H]3[C@]4(C)C[C@H](O[C@@H]5O[C@H](COC(C)=O)[C@@H](OC(C)=O)[C@H](O[C@@H]6OC[C@H](O)[C@H](O)[C@H]6O)[C@H]5OC(=O)CC(C)C)C[C@@H](C(=O)O)[C@H]4CC[C@]3(C2)[C@H]1O`, the IC50 in the series on BV-2 [1] stood at 15.6 µM. Further, the Activity result in the series on BV-2 [2] was “Non-Toxic”.
As for `C=C1[C@@H]2CC[C@H]3[C@]4(C)C[C@H](O[C@@H]5O[C@H](CO)[C@@H](OC(C)=O)[C@H](O[C@@H]6OC[C@H](OC(C)=O)[C@H](O)[C@H]6O)[C@H]5OC(=O)CC(C)C)C[C@@H](C(=O)O)[C@H]4CC[C@]3(C2)[C@H]1O`, the IC50 in series [3] amounted to 537 µM.
As for `C=C1[C@@H]2CC[C@H]3[C@]4(C)C[C@H](O[C@@H]5O[C@H](CO)[C@@H](O)[C@H](OC(C)=O)[C@H]5OC(=O)CC(C)C)CC(C(=O)O)(C(=O)O)[C@H]4CC[C@]3(C2)[C@H]1O`, in series [3], the half-inhibitory concentration (IC50) is 32.8 µM.
Same read-out and setting: for `C=C1[C@@H]2CC[C@H]3[C@]4(C)C[C@H](O[C@@H]5O[C@H](CO)[C@@H](O)[C@H](O[C@@H]6OC[C@H](OC(C)=O)[C@H](O)[C@H]6OC(C)=O)[C@H]5OC(=O)CC(C)C)C[C@@H](C(=O)O)[C@H]4CC[C@]3(C2)[C@H]1O` the value was 373 µM.
With `C[C@H]1O[C@H](O[C@H]2[C@H](O)[C@@H](O)[C@@H](O[C@H]3[C@H](O)[C@@H](O)C(O)O[C@@H]3CO)O[C@@H]2CO)[C@H](O)[C@@H](O)[C@@H]1N[C@H]1C=C(CO)[C@@H](O)[C@H](O)[C@H]1O` (some centres not stated) [ACARBOSE], the IC50 in series [3] was 388 µM.
`CNC(=N)NCCC[C@H](N)C(=O)O` [TILARGININE]: in the series on BV-2 [1], the IC50 stood at 31.8 µM.
